Experimental data published in patent publication US20200068890A1 (Person to Whom the Inventor is Obligated to Assign, priority 2017, published 2020).
Several values for one entry are separate records, joined by “and”; a condition that tells them apart may be missing. Equal entries are not always repeated. Where two headings read alike, the source gives them in different places.

Tests used:
MSSA 9144 = assay: Broth microdilution MIC; format: cell-based; conditions: Staphylococcus aureus
Procedure: Assays were carried out by a broth microdilution method using a 96-well plate according to guidelines defined by the European Committee on Antimicrobial Susceptibility Testing as described here. Overnight cultures of strains were grown in tryptic soy broth (TSB) at 37° C. The overnight cultures were diluted to a concentration of 1×10^6 bacteria/ml (OD600=0.01) in TSB media. To each well on 96 well plates, 100 μl of bacterially infected media at a concentration of 1×10^6/ml and compounds at various concentrations were added. An uninfected control (i.e. no bacteria) was also included. The plates were incubated at 37° C. wrapped in parafilm for 20 hrs. The growth was assessed by measuring the absorbance at 600 nm. The minimum inhibitory concentration (MIC) was determined to be the lowest concentration of compound that inhibits visible bacterial growth.

A. thaliana seedlings = assay: In planta seedling development and root length on GM/MS media; format: in vivo; conditions: for Normalised root / Root Length: individual plants 1-20
Procedure: Gamborg modified/Murashige Skoog (GM/MS) media and soil were prepared as according to Table 6.
A. thaliana seeds were sterilised including a 15 min wash step in 10% (v/v) commercial bleach without the addition of detergents. All plants were grown in a controlled environment room (CER) at 22±5° C. with 16 hrs: 8 hrs light: dark, 50-60% humidity under cool-white fluorescent light. Plants grown on soil were regularly watered and relocated within the CER.
Basta was employed as a positive control at a final recommended concentration of 10 μg/mL (50 μM). Negative controls included 0% (v/v) DMSO (H2O) and 1% (v/v) DMSO (vehicle). Media was poured into 100 mL plates and allowed to set before adding 20 sterilised seeds per plate. Seeds were then stratified at 4° C. for 72 hrs in a dark room prior to relocation into a CER.
The resulting growth plates were monitored daily and allowed to grow in an upright position for up to 14 days post stratification to determine the average root length using ImageJ analysis. Experiments were carried out in triplicates. Results were statistically validated using t-tests employing GraphPad Prism.

[1] = system: human liver cells (HepG2); assay: MTT viability assay; conditions: for % viability 1 / % viability 2 / % viability 3: 48 hrs
Procedure: (§1) Cells were harvested and resuspended in growth media (5-10 ml) to count. Cells were diluted to the appropriate concentration (5×10^3), and seeded into 96-well plates as follows: (a) 50 μl of cells per well, (b) 100 μl of growth media in the Blank wells, (c) 100 μl PBS in outer wells (to prevent dehydration of media from the cells). Cells were incubated overnight at 37° C. (5% CO2).
(§2) Compounds were prepared as serial dilutions in growth media. Each treatment concentration was performed in triplicate. 50 μl/well of prepared compound was added to cells.
(§3) A no treatment triplicate (100% viability) was also included by adding 50 μl of growth media to cells. Plates were returned to the incubator for 48 hrs.
(§4) MTT powder in 1×PBS was prepared at 5 mg/ml and filter sterilised. MTT was added to serum-free media to a final concentration of 1 mg/ml. 100 μl of the MTT solution (1 mg/ml) was added to each well, including 0 μM and blank wells. Plates were incubated at 37° C. in incubator for 3 hrs. Following incubation, the media was removed from wells without disrupting the purple crystals formed. 100 μl of DMSO was added to each well using a multichannel pipette. The plates were shaken on the plate shaker until all the crystals have dissolved. The absorbance was measured at 570 nm using a plate reader. The data was analysed using Microsoft Excel. For each treatment concentration the average was calculated, the blank was subtracted and the cell viability was determined as a percentage of the no treatment control (DMSO vehicle control).

[2] = system: human kidney cells (HEK293); assay: MTT viability assay; conditions: for % Viability Remaining 1 / % Viability Remaining 2 / % Viability Remaining 3: 48 hrs
Procedure: as §1, §2, §3, §4

A. thaliana DHDPS = system: T1, A. thaliana DHDPS; assay: DHDPS-DHDPR coupled assay, dose response inhibitor assay; format: biochemical, Arabidopsis thaliana
T1 construct: AtDHDPS|10|0.00008; no borders, domain or tags given
Procedure: DHDPS enzyme activity was determined using the coupled assay in a Cary 4000 UV/Vis spectrophotometer at 340 nm in 1 cm acrylic cuvettes. A master mix was prepared for each reaction as per Table 1. Reaction mixtures containing enzymes, pyruvate, buffer and NADPH were incubated at 30° C. for 12 mins before the addition of ASA to initiate the reaction. The oxidation of NADPH to NADP^+ was then monitored at 340 nm at 30° C. as a function of time. The initial rate (ΔA340·min^−1) was calculated from the slope of the linear portion of the A340 versus time profile. All experiments were carried out in triplicate. The enzyme kinetic parameters, including KM values, were determined using the Michaelis-Menten equation (Equation 1). Unless otherwise stated, all kinetic data were fitted using the built-in equations in GraphPad Prism.
To determine/C50 values for the inhibitors, A. thaliana DHDPS enzyme activity was measured using the coupled assay (detailed above) in the presence of increasing concentrations of inhibitor. The initial rate was then plotted as a function of the log 10 of the inhibitor concentration and the/C50 determined according to Equation 2.

COc1ccc(/C=C2\SC(=O)N(CC(=O)O)C2=O)cc1 [Compound 5, (Z)-2-(5-(4-Methoxybenzylidene)-2,4-dioxothiazolidin-3-yl)acetic Acid]
MIC (MSSA 9144; MSSA 9144, replicate 1, read-out: MIC #1): > 64 µg/mL
MIC (MSSA 9144; MSSA 9144, replicate 2, read-out: MIC #2): > 64 µg/mL
MIC (MSSA 9144; MSSA 9144, replicate 3, read-out: MIC #3): > 64 µg/mL
Normalised root (A. thaliana seedlings; 15.6 μM in GM/MS media): 82.76 and 96.69 and 73.74 and 70.27 and 71.53 and 139.9 and 115.3 and 146.5 and 77.53 and 88.03 and 73.65 and 65.55 and 78.22 and 74.81 and 104.1 and 65.25 and 3.437 and 81.45 and 65.88 and 72.75
Root Length (A. thaliana seedlings; 15.6 μM in GM/MS media): 2.769 cm and 3.235 cm and 2.467 cm and 2.351 cm and 2.393 cm and 4.682 cm and 3.856 cm and 4.902 cm and 2.594 cm and 2.945 cm and 2.464 cm and 2.193 cm and 2.617 cm and 2.503 cm and 3.482 cm and 2.183 cm and 0.115 cm and 2.725 cm and 2.204 cm and 2.434 cm
Normalised root (A. thaliana seedlings; 31.3 μM in GM/MS media): 88.38 and 1.793 and 71.56 and 59.48 and 79.48 and 5.948
Root Length (A. thaliana seedlings; 31.3 μM in GM/MS media): 2.957 cm and 0.06 cm and 2.394 cm and 1.99 cm and 2.659 cm and 0.199 cm
Normalised root (A. thaliana seedlings; 62.5 μM in GM/MS media): 7.413 and 36.02 and 1.315 and 72.21 and 57.81 and 43.67 and 43.88 and 58.91 and 47.85 and 54.64 and 35.81 and 30.88 and 2.78 and 15.18 and 44.24 and 60.59
Root Length (A. thaliana seedlings; 62.5 μM in GM/MS media): 0.248 cm and 1.205 cm and 0.044 cm and 2.416 cm and 1.934 cm and 1.461 cm and 1.468 cm and 1.971 cm and 1.601 cm and 1.828 cm and 1.198 cm and 1.033 cm and 0.093 cm and 0.508 cm and 1.48 cm and 2.027 cm
Normalised root (A. thaliana seedlings; 125 μM in GM/MS media): 17.75 and 24.42 and 18.71 and 21.94 and 21.31 and 20.59 and 21.58 and 22.78 and 6.905 and 15.15 and 6.636 and 15.69 and 16.44 (2×) and 2.062 and 14.11 and 1.016 and 19.97 and 13.33 and 0.8668
Root Length (A. thaliana seedlings; 125 μM in GM/MS media): 0.594 cm and 0.817 cm and 0.626 cm and 0.734 cm and 0.713 cm and 0.689 cm and 0.722 cm and 0.762 cm and 0.231 cm and 0.507 cm and 0.222 cm and 0.525 cm and 0.55 cm (2×) and 0.069 cm and 0.472 cm and 0.034 cm and 0.668 cm and 0.446 cm and 0.029 cm
Normalised root (A. thaliana seedlings; 250 μM in GM/MS media): 3.019 and 3.856 and 2.63 and 2.989 (2×) and 4.693 and 3.049 and 0.3886 and 5.021 and 2.541 and 2.451 and 12.37 and 5.051 and 4.812 and 3.497 and 2.361 and 1.225 and 2.272 and 0.8668 and 0.4185
Root Length (A. thaliana seedlings; 250 μM in GM/MS media): 0.101 cm and 0.129 cm and 0.088 cm and 0.1 cm (2×) and 0.157 cm and 0.102 cm and 0.013 cm and 0.168 cm and 0.085 cm and 0.082 cm and 0.414 cm and 0.169 cm and 0.161 cm and 0.117 cm and 0.079 cm and 0.041 cm and 0.076 cm and 0.029 cm and 0.014 cm
Normalised root (A. thaliana seedlings; 500 μM in GM/MS media): 0.807 and 0.9565 (3×) and 0.5978 and 2.72 and 0.4185 (2×) and 0.7472 and 0.9266 and 0.2391 and 0.3587 and 0.8668 and 1.375 and 1.315 and 3.348 and 1.853 and 0.9864
Root Length (A. thaliana seedlings; 500 μM in GM/MS media): 0.027 cm and 0.032 cm (3×) and 0.02 cm and 0.091 cm and 0.014 cm (2×) and 0.025 cm and 0.031 cm and 0.008 cm and 0.012 cm and 0.029 cm and 0.046 cm and 0.044 cm and 0.112 cm and 0.062 cm and 0.033 cm
seedling development (A. thaliana seedlings; concentrations 125 μM and higher): did not develop past the point of hypocotyl formation
development and growth of A. thaliana (leaves) (A. thaliana seedlings; highest concentrations tested): lack of any chlorophyll containing leaves
% viability 1 ([1]; HepG2, 12.5 μM): 111%
% viability 2 ([1]; HepG2, 12.5 μM): 107%
% viability 3 ([1]; HepG2, 12.5 μM): 105%
% viability 1 ([1]; HepG2, 25 μM): 111%
% viability 2 ([1]; HepG2, 25 μM): 106%
% viability 3 ([1]; HepG2, 25 μM): 105%
% viability 1 ([1]; HepG2, 50 μM): 102%
% viability 2 ([1]; HepG2, 50 μM): 91.9%
% viability 3 ([1]; HepG2, 50 μM): 104%
% viability 1 ([1]; HepG2, 100 μM): 111%
% viability 2 ([1]; HepG2, 100 μM): 105%
% viability 3 ([1]; HepG2, 100 μM): 84.8%
% viability 1 ([1]; HepG2, 200 μM): 78.7%
% viability 2 ([1]; HepG2, 200 μM): 110%
% viability 3 ([1]; HepG2, 200 μM): 94.4%
% viability 1 ([1]; HepG2, 400 μM): 82.1%
% viability 2 ([1]; HepG2, 400 μM): 84.9%
% viability 3 ([1]; HepG2, 400 μM): 92.5%
toxicity to HepG2 cells (in words) ([1]; HepG2, MTT, up to 400 μM (Defensin 100 μM)): effectively nontoxic
% Viability Remaining 1 ([2]; HEK293, 12.5 μM): 105%
% Viability Remaining 2 ([2]; HEK293, 12.5 μM): 103%
% Viability Remaining 3 ([2]; HEK293, 12.5 μM): 85.0%
% Viability Remaining 1 ([2]; HEK293, 25 μM): 105%
% Viability Remaining 2 ([2]; HEK293, 25 μM): 103%
% Viability Remaining 3 ([2]; HEK293, 25 μM): 85.0%
% Viability Remaining 1 ([2]; HEK293, 50 μM): 92.3%
% Viability Remaining 2 ([2]; HEK293, 50 μM): 101%
% Viability Remaining 3 ([2]; HEK293, 50 μM): 90.8%
% Viability Remaining 1 ([2]; HEK293, 100 μM): 106%
% Viability Remaining 2 ([2]; HEK293, 100 μM): 103%
% Viability Remaining 3 ([2]; HEK293, 100 μM): 82.8%
% Viability Remaining 1 ([2]; HEK293, 200 μM): 82.7%
% Viability Remaining 2 ([2]; HEK293, 200 μM): 86.0%
% Viability Remaining 3 ([2]; HEK293, 200 μM): 84.9%
% Viability Remaining 1 ([2]; HEK293, 400 μM): 96.4%
% Viability Remaining 2 ([2]; HEK293, 400 μM): 91.3%
% Viability Remaining 3 ([2]; HEK293, 400 μM): 89.1%
toxicity to HEK293 cells (in words) ([2]; HEK293, MTT, up to 400 μM (Defensin 100 μM)): effectively nontoxic
IC50 (A. thaliana DHDPS): 46.9 µM
